Data published in patent US12590099B2, “Inhibitors of histone deacetylase useful for the treatment or prevention of HIV infection” (Merck Sharp & Dohme LLC, priority 2018, dated 2026).
Like-named read-outs stand apart in the source and are kept apart here.

Key:
Recombinant human HDAC1 = biological target: T1, Recombinant human HDAC1 (Homo sapiens, UniProt Q13547); test: Human HDAC enzyme inhibitor Fluor-de-Lys assay, HDAC1; type: biochemical
T1 construct: FLAG (C); made in house
Procedure, shortened: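 Fluor-de-Lys format at room temperature (23° C.): compounds titrated 10-point, 1:3, preincubated with HDAC before substrate addition; HDAC1 run at 0.3 nM enzyme with 20 μM BML-KI104. Developer with excess HDAC inhibitor ends the reaction, and trypsin-liberated AMC fluorescence is the read-out.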

KARN cells (Jurkat 2C4) = test: cells; type: cell-based
Procedure, shortened: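 Luminescence (Steady-Glo, 10 min, room temperature) measured next day in KARN Jurkat 2C4 cells given compounds at up to 40 μM final with 0.4% DMSO. Percent activation normalised to DMSO (0%) and 2 μM SAHA (100%), fitted by 4-parameter curve.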

[1] = recombinant human HDAC1, Fluor-de-Lys assay
[2] = Homo sapiens, Jurkat, read-out: Karn EC50 (nM) 0.1% NHS, 0.1% normal human serum, luciferase induction, 100% = 2 μM SAHA
[3] = Homo sapiens, Jurkat, read-out: Karn EC50 (nM) 5% NHS, 5% normal human serum, luciferase induction, 100% = 2 μM SAHA
[4] = Homo sapiens, Jurkat, read-out: Karn EC50 (nM) 0.1% NHS, 0.1% normal human serum
[5] = Homo sapiens, Jurkat, read-out: Karn EC50 (nM) 5% NHS, 5% normal human serum

T1 sequence (Q13547 whole entry): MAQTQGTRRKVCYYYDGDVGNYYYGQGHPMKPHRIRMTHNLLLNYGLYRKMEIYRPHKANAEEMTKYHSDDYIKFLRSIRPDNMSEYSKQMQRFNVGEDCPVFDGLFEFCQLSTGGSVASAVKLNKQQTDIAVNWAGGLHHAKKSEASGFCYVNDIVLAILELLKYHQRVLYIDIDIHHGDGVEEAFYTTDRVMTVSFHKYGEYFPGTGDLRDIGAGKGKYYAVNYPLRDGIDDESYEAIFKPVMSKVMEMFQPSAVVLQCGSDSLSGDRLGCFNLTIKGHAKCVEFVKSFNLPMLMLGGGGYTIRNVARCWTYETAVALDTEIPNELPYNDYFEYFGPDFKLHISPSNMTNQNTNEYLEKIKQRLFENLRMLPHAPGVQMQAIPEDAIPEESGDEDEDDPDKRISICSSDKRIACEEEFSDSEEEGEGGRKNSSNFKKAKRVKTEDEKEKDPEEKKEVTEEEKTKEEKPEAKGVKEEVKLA

Compound | IC50 (Recombinant human HDAC1; [1]) [nM] | EC50 (KARN cells (Jurkat 2C4); [2]) [nM] | EC50 (KARN cells (Jurkat 2C4); [3]) [nM] | IC50 (Recombinant human HDAC1) [nM] | EC50 (KARN cells (Jurkat 2C4); [4]) [nM] | EC50 (KARN cells (Jurkat 2C4); [5]) [nM] | EC50 (KARN cells (Jurkat 2C4); read-out: Karn EC50 (nM) 0.1% NHS, 0.1% normal human serum, luciferase induction, 100% = 2 μM SAHA) [nM] | EC50 (KARN cells (Jurkat 2C4); read-out: Karn EC50 (nM) 5% NHS, 5% normal human serum, luciferase induction, 100% = 2 μM SAHA) [nM]
CCC(=O)CCCCCC(NC(=O)C1CCC2(CC1)OC(=O)c1ccncc12)c1nnc(-c2cc3ccccc3nc2OC)o1 (stereo not drawn) [Compound 363] | 85.5 | 2080 | 4810 | – | – | – | – | –
CCC(=O)CCCCC[C@H](NC(=O)[C@H]1CC12CCN(C)CC2)c1ncc(-c2ccc3ccc(C)nc3c2F)[nH]1 [Compound 354] | 1.82 | 264 | 295 | – | – | – | – | –
CCOc1ncc(-c2cnc([C@H](CCCCCC(=O)CC)NC(=O)[C@H]3CC34CCN(C)CC4)[nH]2)cn1 [Compound 266] | 155 | 9900 | 13800 | – | – | – | – | –
CCC(=O)CCCCC[C@H](NC(=O)[C@H]1CC12CCN(CC)CC2)c1ncc(-c2ccc3c(ccc(=O)n3C)c2)o1 [Compound 97] | – | – | – | 6.52 | 563 | 660 | – | –
CCC(=O)CCCCC[C@H](NC(=O)C1CC12CC1CCC(C2)N1C)c1ncc(-c2ccc3ncccc3c2)[nH]1 (single isomer, unassigned) [Compound 242] | 3.94 | 1690 | 2770 | – | – | – | – | –
CCC(=O)CCCCC[C@H](NC(=O)[C@H]1CC12CCN(C)CC2)c1ncc(-c2coc3ccccc3c2=O)[nH]1 [Compound 86] | – | – | – | 15.9 | 1060 | 1510 | – | –
CCC(=O)CCCCC[C@H](NC(=O)C1=NOC2(CCN(CC3CC3)CC2)C1)c1ncc(-c2cc3ccc(=O)n(C)c3cc2OC)o1 [Compound 236] | 0.36 | 442 | 476 | – | – | – | – | –
CCC(=O)CCCCC[C@H](NC(=O)[C@H]1CC12CCN(C)CC2)c1ncc(-c2ccnc(N3CCOCC3)c2F)[nH]1 [Compound 261] | 25.2 | 1380 | 1500 | – | – | – | – | –
CN1CCC2(CC1)C[C@@H]2C(=O)N[C@@H](CCCCCC(=O)CC1CC1)c1ncc(-c2ccc(F)cc2)[nH]1 [Compound 84] | – | – | – | 9.95 | 632 | 1180 | – | –
CCCn1cc(-c2[nH]c(-c3ccc(F)cc3)nc2C(CCCCCC(=O)CC)NC(=O)C2CC23CCN(CC)CC3)cn1 (stereo not drawn) [Compound 254] | 29.4 | 5340 | 6040 | – | – | – | – | –
CCC(=O)CCCCC[C@H](NC(=O)[C@H]1CC12CCN(C)CC2)c1ncc(-c2ccc(F)cc2)[nH]1 [Compound 280] | 30 | 1020 | 919 | – | – | – | – | –
CCC(=O)CCCCC[C@H](NC(=O)[C@H]1CC12CCN(C)CC2)c1ncc(-c2ccccc2F)[nH]1 [Compound 290] | 15.4 | 415 | 519 | – | – | – | – | –
CCC(=O)CCCCC[C@H](NC(=O)CC1CC2(CNC2)C1)c1ncc(-c2ccccc2)[nH]1 [Compound 297] | 27.9 | 5840 | 15800 | – | – | – | – | –
CCC(=O)CCCCC[C@@H](NC(=O)C1CCC2(CC1)CN(C)C2)c1ncc(-c2ccccc2)[nH]1 [Compound 310] | 33 | 1490 | 1920 | – | – | – | – | –
CCC(=O)CCCCC[C@H](NC(=O)CC1CC2(C1)CN(C(C)C)C2)c1ncc(-c2cc3ccccc3nc2OC)[nH]1 [Compound 273] | < 1.5 | 111 | 438 | – | – | – | – | –
CCC(=O)CCCCC[C@H](NC(=O)[C@H]1CC12CN(C)C2)c1ncc(-c2cc3ccc(C)nc3cc2OC)o1 (single isomer, unassigned) [Compound 230] | 0.4 | 88 | 83 | – | – | – | – | –
CCC(=O)CCCCC[C@H](NC(=O)C1=NOC2(CCN(C)CC2)C1)c1ncc(-c2ccc(-c3cnccn3)cc2OC)o1 [Compound 237, N-{(1S)-1-[5-(2-methoxy-4-pyrazin-2-ylphenyl)-1,3-oxazol-2-yl]-7-oxononyl}-8-methyl-1-oxa-2,8-diazaspiro[4.5]dec-2-ene-3-carboxamide] | 2.41 | 235 | 274 | – | – | – | – | –
CCC(=O)CCCCC[C@H](NC(=O)[C@H]1CC12CCN(C)CC2)c1ncc(-c2ccc(C(=O)NC3CCOC3)cc2)[nH]1 (stereo partly drawn) [Compound 258] | 7.82 | 7440 | 7840 | – | – | – | – | –
CCC(=O)CCCCC[C@H](NC(=O)[C@@H]1CC12CN(C)C2)c1ncc(-c2cc3ccc(C)nc3cc2OC)o1 (single isomer, unassigned) [Compound 231] | 1.26 | 589 | 535 | – | – | – | – | –

Compound | IC50 (Recombinant human HDAC1; [1]) [nM] | EC50 (KARN cells (Jurkat 2C4); [2]) [nM] | EC50 (KARN cells (Jurkat 2C4); [3]) [nM] | IC50 (Recombinant human HDAC1) [nM] | EC50 (KARN cells (Jurkat 2C4); [4]) [nM] | EC50 (KARN cells (Jurkat 2C4); [5]) [nM] | EC50 (KARN cells (Jurkat 2C4); read-out: Karn EC50 (nM) 0.1% NHS, 0.1% normal human serum, luciferase induction, 100% = 2 μM SAHA) [nM] | EC50 (KARN cells (Jurkat 2C4); read-out: Karn EC50 (nM) 5% NHS, 5% normal human serum, luciferase induction, 100% = 2 μM SAHA) [nM]
CCC(=O)CCCCC[C@H](NC(=O)[C@H]1CC12CCN(C(C)C)CC2)c1ncc(-c2ccc3nc(C)ccc3c2)[nH]1 [Compound 83] | – | – | – | < 1.5 | 64 | 60 | – | –
CCC(=O)CCCCC[C@H](NC(=O)C1=NOC2(CCN(C)CC2)C1)c1ncc(-c2cc3ccc(C)nc3cc2F)[nH]1 [Compound 232] | 1.33 | 144 | 248 | – | – | – | – | –
CCC(=O)CCCCC[C@H](NC(=O)[C@H]1CC12CCN(CC)CC2)c1ncc(-c2ccc3nn(C4CC4)cc3c2)[nH]1 [Compound 238] | 0.22 | 66 | 45 | – | – | – | – | –
CCC(=O)CCCCC[C@H](NC(=O)[C@H]1CC12CCN(C(C)C)CC2)c1ncc(-c2ccc3nc(C4CC4)ccc3c2)[nH]1 [Compound 100] | – | – | – | < 1.5 | 68 | 64 | – | –
CCC(=O)CCCCC[C@H](NC(=O)[C@H]1CC12CCN(CC1CC1)CC2)c1ncc(-c2cc3ccn(C)c(=O)c3cc2OC)o1 [Compound 229] | 0.09 | 31 | 29 | – | – | – | – | –
CCC(=O)CCCCC[C@H](NC(=O)C1CC12CCN(CC)CC2)c1nc(-c2ccc(F)cc2)[nH]c1-c1cnn(C)c1 (stereo partly drawn) [Compound 248] | 5.84 | 183 | 429 | – | – | – | – | –
CCC(=O)CCCCC[C@H](NC(=O)[C@H]1CC12CCN(C)CC2)c1ncc(-c2ccc3ncoc3c2)[nH]1 [Compound 89] | – | – | – | 3.63 | 219 | 237 | – | –
CCC(=O)CCCCC[C@H](NC(=O)[C@H]1CC12CCN(C)CC2)c1[nH]c(-c2ccc(F)cc2)nc1Cl [Compound 91] | – | – | – | 4.38 | 207 | 274 | – | –
CCC(=O)CCCCC[C@H](NC(=O)[C@H]1CC12CCN(C(C)C)CC2)c1ncc(-c2cc3ccccc3nc2OC)o1 [Compound 99] | – | – | – | 3.55 | 162 | 310 | – | –
CCC(=O)CCCCC[C@H](NC(=O)C1CCC2(CC1)CN(C(C)C)C2)c1ncc(-c2cc3ccccc3nc2OC)[nH]1 [Compound 272] | 2.08 | 163 | 721 | – | – | – | – | –
CCC(=O)CCCCC[C@H](NC(=O)[C@H]1CC12CCN(C)CC2)c1ncc(-c2ccc(C)nc2OC)[nH]1 [Compound 268] | 3.89 | 205 | 330 | – | – | – | – | –
CCC(=O)CCCCC[C@H](NC(=O)C1=NOC2(CCN(CC)CC2)C1)c1ncc(-c2cc3ccc(C)nc3cc2F)o1 [Compound 269] | 5.18 | – | – | – | – | – | 746 | 1210
CCC(=O)CCCCC[C@H](NC(=O)[C@H]1CC12CCN(CC)CC2)c1ncc(-c2cnc3cc(C(F)(F)F)ccc3c2)[nH]1 [Compound 341] | 0.42 | 44 | 70 | – | – | – | – | –
CCC(=O)CCCCC[C@@H](NC(=O)C1CCC2(CC1)CNC2)c1ncc(-c2ccccc2)[nH]1 [Compound 298] | 36.5 | 7010 | 11800 | – | – | – | – | –
CCC(=O)CCCCC[C@H](NC(=O)[C@H]1CC12CCN(C)CC2)c1ncc(-c2ccc(-c3cccnc3)nc2)[nH]1 [Compound 262] | 4.42 | 773 | 851 | – | – | – | – | –
CCC(=O)CCCCC[C@H](NC(=O)[C@H]1CC12CCN(CC)CC2)c1ncc(-c2ccc(-c3ncco3)cc2)o1 [Compound 94] | – | – | – | 9.13 | 502 | 549 | – | –
CCC(=O)CCCCC[C@H](NC(=O)C1CC12CCN(CC)CC2)c1nc(-c2ccc(F)cc2)[nH]c1-c1cccs1 (stereo partly drawn) [Compound 252] | 56.6 | 1600 | 2880 | – | – | – | – | –
CCC(=O)CCCCC[C@H](NC(=O)C1=NOC2(CCN(CC)CC2)C1)c1ncc(-c2cc3ccc(=O)n(C)c3cc2OC)o1 [Compound 235] | 0.7 | 249 | 411 | – | – | – | – | –
CCC(=O)CCCCC[C@H](NC(=O)CC1CC2(C1)CN(C)C2)c1ncc(-c2ccccc2)[nH]1 [Compound 307] | 62.9 | 3700 | 2570 | – | – | – | – | –
